According to PMC8003416, “Modulation of Human Phenylalanine Hydroxylase by 3-Hydroxyquinolin-2(1H)-One Derivatives” (Biomolecules, 2021):
Several values for one entry are separate records, joined by “and”; a condition that tells them apart may be missing. Equal values may be shown once.

Assays:
[1] = molecular target: T1, hPAH-RD^1–120 (N-terminal regulatory domain) (Homo sapiens, UniProt P00439); test: Light scattering assay of hPAH-RD1–120 self-association
T1 construct: consisting solely of the N-terminal regulatory domain (amino acids 1–120); made in house; host or cells: E. coli TB1
T1 sequence (P00439 1-120): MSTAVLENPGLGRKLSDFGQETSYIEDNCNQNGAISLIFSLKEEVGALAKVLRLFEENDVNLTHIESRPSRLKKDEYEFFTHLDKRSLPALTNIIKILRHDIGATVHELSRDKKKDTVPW
Description: Self-assembly of the dimeric forms of hPAH-RD^1–120 was followed in real-time at 25 °C upon cleavage of MBP-FXa-hPAH-RD^1–120 with FXa (New England Biolabs) to release the MBP fusion partner. Assays (n = 3) were performed in the absence or presence of tested compounds as described in [17]. Briefly, FXa (at a final ratio 1:150 (w/w) relative to the fusion protein) was added to the reaction mixture containing the MBP-FXa-hPAH-RD^1–120 fusion protein (0.74 mg/mL), 20 mM Na-HEPES, 100 mM NaCl, pH 7.0 and tested 3HQ (100 μM). The increase in absorbance at 350 nm was followed for 180 min on a FLUOstar Omega (BMG Labtech) microplate reader. A shaking step was introduced before each measurement. Appropriate control assays were performed and included: (i) a positive control consisting of MBP-FXa-hPAH-RD^1–120 in the presence of FXa, 1% DMSO and in the absence of compounds; and (ii) a negative control consisting of MBP-FXa-hPAH-RD^1–120 in the absence of FXa and compounds. For all the assays, aliquots of the aggregation reaction were collected at the end of the reaction (180 min) and analyzed by SDS-PAGE to confirm the extent of MBP cleavage by FXa. In addition, the effect of tested compounds on FXa activity was monitored using the synthetic FXa substrate Boc–Ile–Glu-Gly–Arg–AMC (t-(Butyloxycarbonyl)-isoleucylglutamylglycylarginyl-7-amido-4-methylcoumarin; from Bachem). Assays (n = 3) were performed in a 96-well plate, in a final volume of 200 μL containing 20 mM Na-HEPES, 100 mM NaCl, pH 7.0, 5 μg/mL of FXa, 50 μM of Boc–Ile-Glu–Gly–Arg–AMC and 100 μM of 3HQ derivatives. Fluorescence was measured in real-time (λexc 360 nm and λem 460 nm) during 30 min, at 25 °C. Controls were performed using substrate alone with 1% DMSO (negative control) and FXa with no compounds and 1% DMSO (positive control).

[2] = molecular target: T2, human phenylalanine hydroxylase (hPAH) (Homo sapiens, UniProt P00439); set-up: method as in PMID 12379147, PMID 15060071; conditions: ref [24],[25]; read-out: KD of L-Phe, previously reported SPR values; cited from earlier work
T2 construct: Recombinant full-length wild-type (WT) hPAH was expressed in E. coli Top10 cells in fusion with a hexa-histidyl peptide; made in house; host or cells: E. coli Top10
T2 sequence (P00439 1-452): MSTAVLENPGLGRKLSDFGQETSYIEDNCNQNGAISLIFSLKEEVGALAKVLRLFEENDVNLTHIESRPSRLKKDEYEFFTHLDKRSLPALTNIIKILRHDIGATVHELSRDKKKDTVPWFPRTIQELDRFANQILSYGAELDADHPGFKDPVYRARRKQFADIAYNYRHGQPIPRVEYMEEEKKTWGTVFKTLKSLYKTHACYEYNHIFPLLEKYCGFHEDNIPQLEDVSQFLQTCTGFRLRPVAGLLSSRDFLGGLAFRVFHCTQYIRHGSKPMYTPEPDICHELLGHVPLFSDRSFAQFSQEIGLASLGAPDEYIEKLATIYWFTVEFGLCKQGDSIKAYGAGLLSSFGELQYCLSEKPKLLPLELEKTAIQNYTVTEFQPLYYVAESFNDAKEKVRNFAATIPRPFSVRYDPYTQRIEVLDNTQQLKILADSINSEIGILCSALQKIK

[3] = Alamar Blue cell viability assay; type: cell-based; conditions: human, HEK-293T cells
Description: Cytotoxicity of selected 3HQs was assessed in HEK-293T cells using the Alamar Blue assay as a general cell viability endpoint method that monitors the cellular metabolic state, and the propidium iodide (PI) exclusion assay was used to evaluate membrane integrity essentially as described. The 3HQs were tested at a final concentration of 50 and 100 μM (two independent assays; five replicates each). Control assays were performed using 1% DMSO (negative control), or SDS at 1 mg/mL as a positive control of cell death in the PI assay. HEK-293T cells were seeded in sterile flat bottom 96-well tissue culture plates, in RPMI 1640 culture medium, supplemented with 10% fetal bovine serum, 100 units/mL of penicillin G (sodium salt), 100 μg/mL of streptomycin sulphate and 2 mM L-glutamine, at a cell density of 2 × 10^4 cells per well. Cells were incubated at 37 °C and 5% CO2. The culture medium was replaced by fresh medium (supplemented as above) containing the different 3HQs to be analyzed. After 24 h incubation, the culture medium was replaced by […] PI (Sigma-Aldrich) in fresh medium (stock solution 1.5 mM in DMSO) and fluorescence was measured (λexc 485 nm, λem 590 nm) in a FLUOstar Omega microplate reader. The Alamar Blue assay was performed by replacing the culture medium with fresh medium containing 5 mM resazurin (Invitrogen). The cells were further incubated for 3 h and fluorescence was measured (λexc 530 nm, λem 590 nm) in a FLUOstar Omega microplate reader (BMG Labtech). The relative PI uptake and cell viability (%) were calculated using Equations (3) and (4), respectively. Relative PI uptake = Fluorescence intensitysample/Fluorescence intensitynegative control(3) Relative cell viability (%) = Fluorescence intensitysample/Fluorescence intensitycontrol × 100(4)

N[C@@H](Cc1ccccc1)C(=O)O [L-Phe, L-phenylalanine, reference compound]
effect on hPAH-RD^1–120 aggregation ([1]; 100 μM, 180 min, 25 °C): only slightly prevented hPAH-RD^1–120 aggregation
effect on hPAH-RD^1–120 aggregation ([1]; 1 mM L-Phe): completely blocked it
Kd [2]: 97 µM and 136 µM

COC(=O)CC[C@H](NC(=O)c1c(O)c(=O)[nH]c2ccc(OC(F)(F)F)cc12)C(=O)OC [Compound 9]
viability at 24 h, 50 µM [3]: 85 ± 32%
viability at 24 h, 100 µM [3]: 82 ± 13%

COC(=O)CNC(=O)c1c(O)c(=O)[nH]c2ccc(OC(F)(F)F)cc12 [Compound 11]
effect on hPAH-RD^1–120 aggregation ([1]; 100 μM, 180 min, 25 °C): no direct evidence of a direct binding to hPAH-RD^1–120 was obtained
viability at 24 h, 50 µM [3]: 94 ± 3%
viability at 24 h, 100 µM [3]: 101 ± 5%
